The source of these data is patent publication US20140322227A1, “PEPTIDES FOR TREATMENT OF BONE DEFICIENCY AND AUTOIMMUNE DISORDERS” (H. LEE MOFFITT CANCER CENTER & RESEARCH INSTITUTE, INC., priority 2013, published 2014).

Each structure is given as a SMILES string. Numbered stars: 1 amine (or outer) side, 2 acyl side, 3 side chain; on linkers, the order of the positions; unused ones are H or OH. Bridge positions count the residues as written; N and C are the ends. Square brackets hold non-standard residues; d marks the D form. Peptide text beside a SMILES is read from it. * marks the point of attachment. dProlinol(O-CH2CO) = O=C(COC[C@H]1CCCN1[*:1])[*:2]; N(2-Aminoethyl)Gly = O=C(CN(CCN[*:3])[*:1])[*:2]; Nle = CCCC[C@H](N)C(=O)O; Ms = CS(=O)(=O)*

The conditions of series [1]: reported; independent of the direct effect on the myeloma cell; cited from earlier work.
The test system of a further series is tumor bearing tibias. The experiment in a line: Bone density (BV/TV) of tumor bearing tibias by CT scanning in myeloma model. The class given is in vivo. Particulars: compared to vehicle control (VC) treated tumor bearing mice. The protocol:
FIG. 43. MTI-101 treated mice show increased trabecular bone density compared to tumor-bearing vehicle control-treated mice (VC). The same 10 tibia bones imaged by Faxitron in FIG. 43 were imaged with a Micro PET/SPECT/CT (Siemens Inveon). After imaging, the bones were reconstructed using COBRA (Constraint Based Reconstruction and Analysis) and analyzed with the Siemens Inveon workstation. 30 separate longitudinal images for each tibia were measured for both bone volume and total volume with the indicated parameters (2 mm below growth plate to 2 mm above junction with fibula). All 30 images were combined and the tibia were analyzed by bone volume/total volume (BV/TV). Images of the control group were compared to both MTI-101 and bortezomib treated mice. […] The same bones that were assayed for tumor volume in FIG. 43 were used to determine bone density by CT scanning.

Series [2] in a line: Stability of MTI-101 in plasma (rat). The class given is in vitro ADME.
Series [3] in a line: Stability of MTI-101 in plasma (mouse). Type of series: in vitro ADME. As to conditions: room temperature.
Another series has as its system RAW 264.7 cells. The experiment in a line: Annexin V flow cytometry cell death assay in RAW 264.7 cells. Type of series: cell-based, murine. The procedure:
FIGS. 5A-5D show the effect of a cyclic HYD1 peptide (MTI-101) on RAW 264.7 cells (FIGS. 5A and 5B) and on RAW 264.7 cell-differentiated osteoclasts (FIGS. 5C and 5D). RAW 264.7 cells were treated with 6.25 to 50 μM MTI-101 and at the end of 24 hrs the cells were scrapped and spun down. After a single wash the cells were stained with Annexin V-FITC dye. The resulting Annexin V positivity was determined using Calibur Flow cytometry. RAW 264.7 cells were treated with 6.25 to 50 μM and incubated for 72 hrs. At the end of the incubation 2 mg/ml of 3-(4,5-dimethythiazol-2-yl)-2,5-diphenyl tetrazolium bromide (MTT). After 4 hours incubation, the resulting formazan product was solubilized by addition of DMSO and the resulting color was measured by a plate reader. […] For quantification, the cells in each treated well were manually counted using a light microscope (FIG. 5C). […]
FIGS. 6A-6C show the effect of cyclic peptide (MTI-101) on RAW 264.7 cells and on RAW 264.7 cell-differentiated osteoclasts. […] The resulting Annexin V positivity was determined using Calibur Flow cytometry. […] After 4 hours incubation the resulting formazan product was solubilized by addition of DMSO and the resulting color was measured by a plate reader. […] For quantification, the cells in each treated well were manually counted using a light microscope. […]
(In general: Flow cytometry measures light scatter and fluorescence of single cells or particles in a stream.)

The nature of series [4]: Stability of MTI-101 in plasma (dog). Type of series: in vitro ADME.
Setting [5] is: 4 degrees Celsius, read-out: Stability - 24 Hour 4 Degrees Celsius.
Setting [6] is: room temperature, read-out: Stability - 24 Hour Room Temperature.

On to `CC(C)C[C@H](NC(=O)[C@H](Cc1ccccc1)NC(=O)c1cnccn1)B(O)O` [bortezomib], for which the bone anabolic effects result in series [1] was “induce bone anabolic effects”. For the same compound, the “bone density (bone volume/total volume, BV/TV)” value in the series with tumor bearing tibias is “increased bone density”.
For the compound `CC(C)C[C@H](NC(=O)[C@H](CCc1ccccc1)NC(=O)CN1CCOCC1)C(=O)N[C@@H](Cc1ccccc1)C(=O)N[C@@H](CC(C)C)C(=O)[C@@]1(C)CO1` [carfilzomib], the bone anabolic effects entry in series [1] is reported as “induce bone anabolic effects”.
For `CCCC[C@@H]1NC(=O)CN(S(C)(=O)=O)CCNC(=O)[C@H](CCCCN)NC(=O)[C@H](CC(C)C)NC(=O)[C@H](CCCCN)NC(=O)[C@H](CC(C)C)NC(=O)[C@H](CCCCN)NC(=O)COC[C@H]2CCCN2C(=O)[C@H](Cc2c[nH]c3ccccc23)NC(=O)[C@H](C)NC(=O)[C@H](C(C)C)NC(=O)[C@H](C(C)C)NC1=O` [MTI-101] (Ms-[N(2-Aminoethyl)Gly][Nle]VVAW[dProlinol(O-CH2CO)]KLKLK; lactam 1-C), the remaining at 24 h amounted to 94% in series [2] (setting [5]); 90% in series [2] (setting [6]); 85% in series [3]; 83% in series [4] (setting [5]); 67% in series [4] (setting [6]). Moreover, the “cell death (Annexin V positivity)” value with RAW 264.7 cells (multiple dosing 6.25 to 50 μM on days 1, 3 and 5, read day 7) is on record as “nor did it induce cell death”; in the series with RAW 264.7 cells (single treatment 6.25 to 50 μM, 24 hrs) it was “nor did it induce cell death”.
